Laboratory results published in ChEMBL document CHEMBL4840359, “N-Terminus to Arginine Side-Chain Cyclization of Linear Peptidic Neuropeptide Y Y4 Receptor Ligands Results in Picomolar Binding Constants” (J Med Chem, 2021).
The source made the active and inactive calls. The calls are words filed in the database; no cut-off is given here. Starred links: 1 amine or outer side, 2 acyl side, 3 side chain; linkers in the order of their positions; H or OH if unused. Residues, ends and D or L forms follow the SMILES beside them. Groups on a side chain read outwards from the residue. *: point of attachment. Suc = O=C(CCC(=O)[*:2])[*:1]; NH(CH2)4NH2 = NCCCCN*; CO = O=C([*:1])[*:2]

Key:
[1] = target: T1, Neuropeptide Y receptor type 1 (Homo sapiens, UniProt P25929); test: Displacement of [3H]UR-MK299 from human neuropeptide Y Y1 receptor in human SK-N-MC cells measured after 90 mins by scintillation counting analysis; type: cell-based
T1 sequence (P25929 whole entry): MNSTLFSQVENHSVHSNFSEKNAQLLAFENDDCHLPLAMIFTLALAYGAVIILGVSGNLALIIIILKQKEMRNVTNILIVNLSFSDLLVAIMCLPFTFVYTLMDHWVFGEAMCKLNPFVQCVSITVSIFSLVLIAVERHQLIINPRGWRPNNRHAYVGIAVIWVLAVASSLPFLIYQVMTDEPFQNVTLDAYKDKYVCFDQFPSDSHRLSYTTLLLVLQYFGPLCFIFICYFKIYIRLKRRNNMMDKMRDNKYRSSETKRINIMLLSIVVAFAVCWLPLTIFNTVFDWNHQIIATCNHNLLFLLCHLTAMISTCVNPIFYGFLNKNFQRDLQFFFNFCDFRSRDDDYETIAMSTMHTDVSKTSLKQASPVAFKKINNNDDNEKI

[2] = species on record: Homo sapiens; test: Selectivity ratio, Ki for displacement of [3H]UR-MK299 from human neuropeptide Y Y2 receptor expressed in CHO cells measured after 90 mins by scintillation counting analysis to Ki for displacement of [3H]UR-KK200 from human neuropeptide Y Y4 receptor expressed in CHO-mtAEQ cells co-expressing Gqi5 measured after 90 mins by scintillation counting analysis; type: cell-based
[3] = species on record: Homo sapiens; test: Selectivity ratio, Ki for displacement of [3H]propionyl-pNPY from human neuropeptide Y Y5 receptor in human HEC-1B cells measured after 90 mins by scintillation counting analysis to Ki for displacement of [3H]UR-KK200 from human neuropeptide Y Y4 receptor expressed in CHO-mtAEQ cells co-expressing Gqi5 measured after 90 mins by scintillation counting analysis; type: cell-based
[4] = species on record: Homo sapiens; test: Selectivity ratio, Ki for displacement of [3H]UR-MK299 from human neuropeptide Y Y1 receptor in human SK-N-MC cells measured after 90 mins by scintillation counting analysis to Ki for displacement of [3H]UR-KK200 from human neuropeptide Y Y4 receptor expressed in CHO-mtAEQ cells co-expressing Gqi5 measured after 90 mins by scintillation counting analysis; type: cell-based
[5] = target: T2, Neuropeptide Y receptor type 4 (Homo sapiens, UniProt P50391); test: Intrinsic activity at human neuropeptide Y Y4 receptor expressed in HEK293T-ARRB1 cells assessed as stimulation of beta-arrestin 1 recruitment by multimode plate reader relative to hPP; type: functional, cell-based
[6] = target: T2, Neuropeptide Y receptor type 4; test: Intrinsic activity at human neuropeptide Y Y4 receptor expressed in HEK293T-ARRB2 cells assessed as stimulation of beta-arrestin 2 recruitment by multimode plate reader relative to hPP; type: functional, cell-based
[7] = target: T2, Neuropeptide Y receptor type 4; test: Intrinsic activity at human neuropeptide Y Y4 receptor expressed in CHO-mtAEQ cells co-expressing Gqi5 by calcium aequorin assay; type: functional, cell-based
[8] = target: T3, Neuropeptide Y receptor type 2 (Homo sapiens, UniProt P49146); test: Displacement of [3H]UR-MK299 from human neuropeptide Y Y2 receptor expressed in CHO cells measured after 90 mins by scintillation counting analysis; type: cell-based
T3 sequence (P49146 whole entry): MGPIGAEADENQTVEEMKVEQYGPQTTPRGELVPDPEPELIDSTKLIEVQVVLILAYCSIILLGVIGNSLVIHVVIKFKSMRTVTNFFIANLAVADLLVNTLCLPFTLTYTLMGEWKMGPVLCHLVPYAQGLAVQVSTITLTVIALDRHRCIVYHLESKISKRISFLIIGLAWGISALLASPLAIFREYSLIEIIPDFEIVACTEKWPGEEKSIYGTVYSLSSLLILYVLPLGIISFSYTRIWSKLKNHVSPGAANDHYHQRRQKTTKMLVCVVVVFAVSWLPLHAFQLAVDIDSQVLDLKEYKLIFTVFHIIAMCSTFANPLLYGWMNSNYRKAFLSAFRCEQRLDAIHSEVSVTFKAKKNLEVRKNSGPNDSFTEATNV

[9] = target: T4, Neuropeptide Y receptor type 5 (Homo sapiens, UniProt Q15761); test: Displacement of [3H]propionyl-pNPY from human neuropeptide Y Y5 receptor in human HEC-1B cells measured after 90 mins by scintillation counting analysis; type: cell-based, HEC-1B cell line
T4 sequence (Q15761 whole entry): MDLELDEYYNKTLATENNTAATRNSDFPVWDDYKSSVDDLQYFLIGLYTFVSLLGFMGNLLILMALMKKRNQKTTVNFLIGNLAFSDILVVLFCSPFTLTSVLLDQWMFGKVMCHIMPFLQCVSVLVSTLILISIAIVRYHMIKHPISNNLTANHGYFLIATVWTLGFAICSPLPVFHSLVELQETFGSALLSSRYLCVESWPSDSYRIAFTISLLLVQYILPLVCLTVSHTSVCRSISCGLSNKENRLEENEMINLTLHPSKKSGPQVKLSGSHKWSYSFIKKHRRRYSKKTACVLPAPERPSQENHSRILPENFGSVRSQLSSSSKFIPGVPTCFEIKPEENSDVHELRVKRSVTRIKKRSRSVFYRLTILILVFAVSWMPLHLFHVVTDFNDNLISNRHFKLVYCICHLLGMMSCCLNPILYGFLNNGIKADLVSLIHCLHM

[10] = target: T2, Neuropeptide Y receptor type 4; test: Agonist activity at human neuropeptide Y Y4 receptor expressed in HEK293T-ARRB1 cells assessed as stimulation of beta-arrestin 1 recruitment by multimode plate reader; type: functional, cell-based
[11] = target: T2, Neuropeptide Y receptor type 4; test: Agonist activity at human neuropeptide Y Y4 receptor expressed in HEK293T-ARRB2 cells assessed as stimulation of beta-arrestin 2 recruitment by multimode plate reader; type: functional, cell-based
[12] = target: T2, Neuropeptide Y receptor type 4; test: Agonist activity at human neuropeptide Y Y4 receptor expressed in CHO-mtAEQ cells co-expressing Gqi5 by calcium aequorin assay; type: functional, cell-based
[13] = target: T2, Neuropeptide Y receptor type 4; test: Displacement of [3H]UR-KK200 from human neuropeptide Y Y4 receptor expressed in CHO-mtAEQ cells co-expressing Gqi5 assessed as fold change in affinity measured after 90 mins by scintillation counting analysis relative to Ac-Arg-Tyr-Arg-Leu-Arg-Tyr-NH2; type: cell-based; conditions: filed as agonist
[14] = target: T2, Neuropeptide Y receptor type 4; test: Displacement of [3H]UR-KK200 from human neuropeptide Y Y4 receptor expressed in CHO-mtAEQ cells co-expressing Gqi5 measured after 90 mins by scintillation counting analysis; type: cell-based

T2 sequence (P50391 whole entry): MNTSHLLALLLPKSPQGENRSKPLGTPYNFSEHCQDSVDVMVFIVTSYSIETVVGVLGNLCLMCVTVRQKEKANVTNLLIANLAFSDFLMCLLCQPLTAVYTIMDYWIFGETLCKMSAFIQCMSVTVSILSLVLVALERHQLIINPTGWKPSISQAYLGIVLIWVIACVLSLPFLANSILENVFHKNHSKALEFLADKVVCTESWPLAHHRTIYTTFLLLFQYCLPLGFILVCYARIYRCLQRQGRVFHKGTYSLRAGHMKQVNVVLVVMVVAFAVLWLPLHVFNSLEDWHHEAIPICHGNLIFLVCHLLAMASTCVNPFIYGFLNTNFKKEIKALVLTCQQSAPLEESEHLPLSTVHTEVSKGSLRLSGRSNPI

Ki ([1]; read-out: pKi (converted)) [µM]	Intrinsic activity [5]	Intrinsic activity [6]	Intrinsic activity [7]	Ki ([8]; read-out: pKi (converted)) [µM]	Ki ([9]; read-out: pKi (converted)) [µM]	EC50 ([10]; read-out: EC50) [nM]	EC50 [11] [nM]	EC50 [12] [nM]	fold change (FC) [13]	Ki ([14]; read-out: Ki) [nM]	Ki ([8]; read-out: Ki) [µM]	Ki ([14]; read-out: pKi (converted)) [nM]	EC50 ([10]; read-out: pEC50 (converted)) [nM]	Compound	Selectivity ratio [2]	Selectivity ratio [3]	Selectivity ratio [4]	also measured
> 3.16	55%	61%	75%	> 3.16	> 3.16									CC(=O)N[C@@H](CCCNC(=N)N)C(=O)N[C@@H](Cc1ccc(O)cc1)C(=O)N[C@@H](CCCNC(=N)N)C(=O)N[C@@H](CC(C)C)C(=O)N[C@@H](CCCNC(=N)N)C(=O)N[C@@H](Cc1ccc(O)cc1)C(N)=O	> 830	> 830	> 830	
> 10	71%	60%		> 10	> 10	990	759		-2.9	10	> 10			CC(C)C[C@H](NC(=O)[C@H](CCCNC(=N)NC(=O)NCCCCN)NC(=O)[C@H](CCCNC(=N)N)NC(=O)CCC(=O)O)C(=O)N[C@@H](CCCNC(=N)N)C(=O)N[C@@H](Cc1ccc(O)cc1)C(N)=O (Suc-RR([CO-NH(CH2)4NH2])LRY-NH2)	> 1000	> 1000	> 1000	Ki ([1]; sk-n-mc, read-out: Ki): > 10 µM
> 10	57%	61%		> 10	> 10	270	295		-2.1	7.1	> 10	6.92		CC(C)C[C@H](NC(=O)[C@H](CCCNC(=N)NC(=O)NCCCCN)NC(=O)[C@H](Cc1ccc(O)cc1)NC(=O)[C@H](CCCCN)NC(=O)CCC(=O)O)C(=O)N[C@@H](CCCNC(=N)N)C(=O)N[C@@H](Cc1ccc(O)cc1)C(N)=O (Suc-KYR([CO-NH(CH2)4NH2])LRY-NH2)	> 1400	> 1000	> 1400	Ki ([1]; sk-n-mc, read-out: Ki): > 10 µM; Ki ([9]; hec-1b cell line, read-out: Ki): > 10 µM
	inactive	inactive	inactive				> 10000	> 10000	-16	53			> 10000	CC(C)C[C@H](NC(=O)[C@H](CCCNC(=N)N)NC(=O)[C@H](Cc1ccc(O)cc1)NC(=O)[C@H](CCCNC(=N)N)NC(=O)CCC(=O)O)C(=O)N[C@@H](CCCNC(=N)NC(=O)NCCCN)C(=O)N[C@@H](Cc1ccc(O)cc1)C(N)=O				

More lines, now with the values behind:

Compound	Ki ([1]; read-out: pKi (converted)) [µM]	Intrinsic activity [5]	Intrinsic activity [6]	Intrinsic activity [7]	Ki ([8]; read-out: pKi (converted)) [µM]	Ki ([9]; read-out: pKi (converted)) [µM]	EC50 ([10]; read-out: EC50) [nM]	EC50 [11] [nM]	EC50 [12] [nM]	fold change (FC) [13]	Ki ([14]; read-out: Ki) [nM]	Ki ([8]; read-out: Ki) [µM]	Ki ([14]; read-out: pKi (converted)) [nM]	EC50 ([10]; read-out: pEC50 (converted)) [nM]	Selectivity ratio [2]	Selectivity ratio [3]	Selectivity ratio [4]	also measured
CC(C)C[C@H](NC(=O)[C@@H]1CCCNC(=N)NC(=O)NCCCCNC(=O)CCC(=O)N[C@@H](CCCNC(=N)N)C(=O)N1)C(=O)N[C@@H](CCCNC(=N)N)C(=O)N[C@@H](Cc1ccc(O)cc1)C(N)=O (HELM PEPTIDE1{R.[N=C(NCCC[C@H](N[*:1])C(=O)[*:2])N[*:3]].L.R.Y.[am]}|CHEM1{[O=C(CCC(=O)[*:1])NCCCCNC(=O)[*:2]]}$PEPTIDE1,CHEM1,1:R1-1:R1|PEPTIDE1,CHEM1,2:R3-1:R2$$$V2.0)	> 3.16	87%	83%	61%	> 3.16	> 1000	180	93.3	363	2.4	1.4	> 3			> 2100	> 7100	> 2100	Ki ([1]; read-out: Ki): > 3 µM; Ki ([9]; read-out: Ki): > 10 µM
CC(C)C[C@H](NC(=O)[C@H](CCCNC(=N)N)NC(=O)[C@@H]1CCC(=O)N[C@@H](CCCNC(=N)N)C(=O)NCC(=O)N[C@@H](Cc2ccc(O)cc2)C(=O)N1)C(=O)N[C@@H](CCCNC(=N)N)C(=O)N[C@@H](Cc1ccc(O)cc1)C(N)=O (HELM PEPTIDE1{R.G.Y.E.R.L.R.Y.[am]}$PEPTIDE1,PEPTIDE1,1:R1-4:R3$$$V2.0)	0.457	64%	74%	48%	> 10	> 3.16	290	178	676	1.4	2.5	> 10			> 4000	> 1200	300	Ki ([1]; read-out: Ki): 0.76 µM; Ki ([9]; read-out: Ki): > 3 µM
N=C(N)NCCC[C@@H]1NC(=O)CCC(=O)NCCCNC(=O)NC(=N)NCCC[C@@H](C(=O)N[C@@H](Cc2c[nH]c3ccccc23)C(=O)N[C@@H](CCCNC(=N)N)C(=O)N[C@@H](Cc2ccc(O)cc2)C(N)=O)NC(=O)[C@H](Cc2ccc(O)cc2)NC1=O (HELM PEPTIDE1{R.Y.[N=C(NCCC[C@H](N[*:1])C(=O)[*:2])N[*:3]].W.R.Y.[am]}|CHEM1{[O=C(CCC(=O)[*:1])NCCCNC(=O)[*:2]]}$PEPTIDE1,CHEM1,1:R1-1:R1|PEPTIDE1,CHEM1,3:R3-1:R2$$$V2.0)	> 10	35%	47%	45%	> 10	> 10	520	355	380	-8.2	28	> 10	28.8		> 350	> 350	> 350	Ki ([9]; hec-1b cell line, read-out: Ki): > 10 µM
CC(C)C[C@H](NC(=O)[C@@H]1CC(=O)NCC(=O)N[C@H](CCCNC(=N)N)C(=O)N[C@@H](CCCNC(=N)N)C(=O)N1)C(=O)N[C@@H](CCCNC(=N)N)C(=O)N[C@@H](Cc1ccc(O)cc1)C(N)=O		inactive	inactive	inactive				> 10000	> 10000	-50	170		138	> 10000				
CC(C)C[C@@H]1NC(=O)[C@H](CCCNC(=N)N)NC(=O)[C@H](Cc2ccc(O)cc2)NC(=O)[C@H](CCCNC(=N)N)NC(=O)CCC(=O)NCCCNC(=O)NC(=N)NCCC[C@@H](C(=O)N[C@@H](Cc2ccc(O)cc2)C(N)=O)NC1=O		inactive	inactive	inactive				> 10000	> 10000	-41	140			> 10000				
